We go through 2 molecules from US20130190324A1, “TOPICAL OCULAR DRUG DELIVERY” (The Regents of the University of Colorado, a body corporate, priority 2011, published 2013).

Series [1] relates to human sclera-choroid-RPE (SCRPE). The series is described as follows: In vitro transport of transporter substrate cassette across human sclera-choroid-RPE. Particulars: human SCRPE; for sclera to retina transport in presence of transporter specific inhibitor (in words): inhibitor cocktail 500 μM; for sclera to retina transport compared with retina to sclera transport (in words): substrate cassette 100 μM. As for the experimental part: (§1) In vitro transport studies across human cornea and sclera-choroid-RPE (SCRPE) were carried out according to previously published method using the cassette dosing approach. Briefly, cassette of drug transporter substrate including Gly-Sar (PEPT), L-tryptophan (ATB^0+), MPP^+ (OCT), and phenyl acetic acid (MCT) at concentration of 100 μM in assay buffer was prepared. Briefly, the human eyes were washed with assay buffer and cleaned from muscle and conjunctiva tissues, and anterior and posterior parts were separated by giving circumferential cut behind the limbus. Small sclera part was left with cornea, which helps in mounting of cornea on Ussing chambers. Neural retina was separated from the choroid-RPE by filling the eye cup with assay buffer, and floating retina was collected. After separation of retina, eye cup was divided into two rectangular pieces (˜1.5×1.5 cm) of sclera-choroid-RPE. Isolated tissues were mounted on modified Ussing chambers (Navicyte, Sparks, Nev.) such that the episcleral side of SCRPE or epithelial side of cornea was facing the donor chamber and retinal side or endothelial side of cornea is facing the receiver chamber. To study the effect of directionality on transport, one set of Ussing chambers mounted so that sclera side facing the donor side and another set was mounted so that choroid-RPE facing the donor side. The effect of directionality of transport across cornea was not evaluated. The chambers were filled with 1.5 ml of assay buffer with (donor side) or without (receiver side) the cocktail of drug transporter substrates. For study of effect of transporter inhibitors, cocktail mixture (500 μM) of transporter inhibitor was added on both donor and acceptor side.
(§2) During the transport study, the bathing fluids were maintained at 37° C. using a circulating warm water and pH 7.4 using 95% air-5% CO2 aeration. Samples were collected (200 μL) form receiver side every hour for 6 hr and the lost volume was compensated with fresh assay buffer pre-equilibrated at 37° C. The drug levels were analyzed using a LC-MS/MS assay. Permeation data were corrected for dilution of the receiver solution with sample volume replenishment.
Analytes concentrations in transport study samples were analyzed using LC-MS/MS method after 5-fold dilution with acetonitrile to reduce the salt concentrations. Cassette analysis method was developed for simultaneous analysis of Gly-Sar, L-tryptophan and MPP^+. Phenyl acetic acid was analyzed separately in negative ionization method and normal phase separation method. An API-3000 triple quadrupole mass spectrometry (Applied Biosystems, Foster City, Calif., USA) coupled with a PerkinElmer series-200 liquid chromatography (Perkin Elmer, Walthm, Mass., USA) system was used for analysis. Gly-Sar, L-tryptophan and MPP^+ were separated on Supelco C-5 column (2.1×10 mm, 3 μm) using water containing 0.1% formic acid (A) and acetonitrile:methanol (50:50 v/v) containing 0.1% formic acid (B) as mobile phase and a linear gradient elution at a flow rate of 0.3 ml/min with total run time of 9 min. Phenyl acetic acid was separated in normal phase separation mode using Obelisc-N silica column (2.1×10 mm, 3 μM) using 5 mM ammonium formate, pH 3.5 (A) and acetonitrile (B) as mobile phase in linear gradient mode at flow rate of 0.3 ml with total run time of 6 min. Gly-Sar, L-tryptophan, and MPP^+ were analyzed in positive ionization mode with following multiple reaction monitoring (MRM) transitions: 147→90 (Gly-Sar); 205→188 (L-tryptophan); 170→128 (MPP^+). Phenyl acetic acid was analyzed in negative ionization mode with following multiple reaction monitoring (MRM) transitions: 135→91 (Phenyl acetic acid).

The subject of another series is calf cornea. The series is described as follows: In vitro transport of substrate cassette across normoxic and hypoxic calf cornea. Particulars: for apparent permeability (Papp) across hypoxic vs normoxic tissue (in words) / transport across hypoxic vs normoxic tissue (in words): calf cornea; for transport across hypoxic vs normoxic tissue (in words): cassette 100 μM. The source says:
(§3) Animals used in this study were those that were sacrificed as part of other experiments approved by the Institutional Animal Care Committee of the Colorado State University (Fort Collins) and University of Colorado Anschutz Medical campus. Hypoxic and normoxic calf eyes were obtained from the Department of Physiology, School of Veterinary Medicine, Colorado State University (Fort Collins, Colo.). Briefly, 1 day old male Holstein calves (n=4) were kept in hypobaric hypoxic chambers (PB=445 mm Hg) for 2 weeks. For control experiment, age matched calves (n=4) were kept at ambient altitude (PB=650 mm Hg) and normoxia for two weeks. Hypoxic and normoxic rat eyes were obtained from the Department of Medicine, University of Colorado Anschutz Medical campus (Aurora, Colo.). Sprague Dawley rats (n=4) were maintained in hypobaric hypoxic chambers (PB=380 mm Hg) for 6 weeks and age matched controls were kept at ambient pressure and normoxia.
(§4) In vitro transport studies across hypoxic and control calf cornea and sclera-choroid-RPE (SCRPE) were carried using cassette dosing approach. A cassette of drug transporter substrates, Gly-Sar (PEPT), valacylovir (ATB^0+), MPP^+ (OCT), and phenylacetic acid (MCT) at a concentration of 100 μM each in assay buffer was prepared. Briefly, the calf eyes were harvested immediately after euthanasia and transferred to the laboratory on ice. Upon arrival in the lab, the eyes were washed with assay buffer and cleaned from muscle and unwanted tissues. Anterior and posterior parts were separated by circumferential cut at the limbus. Vitreous was removed and the neural retina was separated from the choroid-RPE by filling the eye cup with assay buffer. The retina afloat in assay buffer was isolated and the eye cup was divided into two pieces (˜1.5×1.5 cm) of sclera-choroid-RPE. Isolated tissues were mounted on modified Ussing chambers (Navicyte, Sparks, Nev.) such that the episcleral side of SCRPE or epithelial side of cornea was facing the donor chamber and retinal side or endothelial side of the cornea was facing the receiver chamber. The chambers were filled with 1.5 ml of assay buffer at 37° C. with (donor side) or without (receiver side) the cocktail of drug transporter substrates. For the study of effect of transporter inhibitors, cocktail mixture (500 μM) of transporter inhibitors was added on both donor and acceptor sides.
(§5) During the transport study, the bathing fluids were maintained at 37° C. using circulating warm water. The pH of the fluids was maintained at pH 7.4 using 95% air-5% CO2 aeration. Samples were collected (200 μL) from receiver side every hour for 6 hours and the removed volume was replaced with fresh assay buffer pre-equilibrated to 37° C. Drug levels were analyzed using a LC-MS/MS assay. Permeation data were corrected for dilution of the receiver concentrations with sample volume replenishment.
(§6) Analyte concentrations in transport study samples were measured using LC-MS/MS method after 5-fold dilution with acetonitrile to reduce the salt concentrations. A cassette analysis method was developed for simultaneous analysis of Gly-Sar, valacylovir, and MPP Phenyl acetic acid was analyzed separately with a negative ionization method and a normal phase separation method. An API-3000 triple quadrupole mass spectrometry (Applied Biosystems, Foster City, Calif., USA) coupled with a PerkinElmer series-200 liquid chromatography (Perkin Elmer, Waltham, Mass., USA) system was used for analysis. Gly-Sar, valacylovir and MPP were separated on Supelco C-5 column (2.1×10 mm, 3 μm) using water containing 0.1% formic acid (A) and acetonitrile:methanol (50:50 v/v) containing 0.1% formic acid (B) as mobile phase. A linear gradient elution at a flow rate of 0.3 ml/min with a total run time of 9 min was employed. Phenyl acetic acid was separated in normal phase separation mode on Obelisc-N silica column (2.1×10 mm, 3 μM) using 5 mM ammonium formate at pH 3.5 (A) and acetonitrile (B) as mobile phase.

Another series deals with human cornea. In words: In vitro transport of transporter substrate cassette across human cornea. Particulars: for transport in presence of transporter inhibitor (in words): apical to basal, inhibitor cocktail 500 μM. As for the experimental part:
as §1, with “The effect of directionality of transport across cornea was not evaluated.” left out
as §2
Analytes concentrations in transport study samples were analyzed using LC-MS/MS method after 5-fold dilution with acetonitrile to reduce the salt concentrations. […] Phenyl acetic acid was analyzed separately in negative ionization method and normal phase separation method. […] Gly-Sar, L-tryptophan, and MPP^+ were analyzed in positive ionization mode with following multiple reaction monitoring (MRM) transitions: 147→90 (Gly-Sar); 205→188 (L-tryptophan); 170→128 (MPP^+). Phenyl acetic acid was analyzed in negative ionization mode with following multiple reaction monitoring (MRM) transitions: 135→91 (Phenyl acetic acid).

The test system of series [2] is calf sclera-choroid-RPE (SCRPE). The series is described as follows: In vitro transport of substrate cassette across normoxic and hypoxic calf SCRPE. Particulars: for apparent permeability (Papp) across hypoxic vs normoxic tissue (in words) / transport across hypoxic vs normoxic tissue (in words): calf SCRPE; for transport across hypoxic vs normoxic tissue (in words): cassette 100 μM.
Source text: as §3, §4, §5, §6

Structures are written as SMILES.

As to `C[n+]1ccc(-c2ccccc2)cc1.[I-]` [MPP^+, MPP^+ iodide], in series [1], the “sclera to retina transport in presence of transporter specific inhibitor (in words)” value was “significantly inhibited” and the “sclera to retina transport compared with retina to sclera transport (in words)” value is given as “significantly higher”. In addition, in series [1] (inhibitor cocktail 500 μM (metformin for MPP+)), the “inhibition of sclera to retina transport in presence of specific inhibitors” value is 1.7 fold. In addition, in the series with calf cornea, the “apparent permeability (Papp) across hypoxic vs normoxic tissue (in words)” value is listed as “significantly higher across normoxic cornea than hypoxic cornea” and the “transport across hypoxic vs normoxic tissue (in words)” value was “significantly higher across normoxic calf cornea than hypoxic calf cornea”. Also, the “decrease in cumulative % transport across hypoxic tissue” value in the series with calf cornea (hypoxic vs normoxic calf cornea) is 49%. Moreover, in the series with human cornea (human cornea), the “transport lower in presence of OCT inhibitor metformin” value was determined as 2.6 fold and the “transport in presence of transporter inhibitor (in words)” value is “significantly inhibited”. Besides, in series [2], the “apparent permeability (Papp) across hypoxic vs normoxic tissue (in words)” value is listed as “significantly higher across normoxic SCRPE than hypoxic SCRPE” and the “transport across hypoxic vs normoxic tissue (in words)” value was “significantly decreased in hypoxic calf SCRPE”. In series [2] (listed as MPP+), the “transport across hypoxic vs normoxic tissue (in words)” value is recorded as “significantly higher across normoxic calf SCRPE than hypoxic calf SCRPE”. The “decrease in cumulative % transport across hypoxic tissue” value in series [2] (hypoxic vs normoxic calf SCRPE) was 61%.
In the case of `O=C(O)Cc1ccccc1` [phenyl acetic acid], in series [1], the “sclera to retina transport in presence of transporter specific inhibitor (in words)” value is given as “no significant effect of inhibitor” and the “sclera to retina transport compared with retina to sclera transport (in words)” value is given as “retina to sclera transport was significantly higher than inward transport”. In the series on calf cornea, the “apparent permeability (Papp) across hypoxic vs normoxic tissue (in words)” value is reported as “significantly higher across hypoxic cornea than normoxic cornea” and the “transport across hypoxic vs normoxic tissue (in words)” value is on record as “significantly higher than normoxic cornea”. The “inward transport compared with outward transport (in words)” value in the series on human cornea (cornea) is on record as “significantly higher than outward transport”. Moreover, the “transport in presence of transporter inhibitor (in words)” value with human cornea (human cornea) is recorded as “significantly inhibited”. Also, in series [2], the “apparent permeability (Papp) across hypoxic vs normoxic tissue (in words)” value is “increased by several fold in hypoxic condition” and the “transport across hypoxic vs normoxic tissue (in words)” value is given as “increased by several fold in hypoxic condition”. In series [2] (listed as phenylacetic acid), the “transport across hypoxic vs normoxic tissue (in words)” value is “significantly higher across hypoxic SCRPE than normoxic SCRPE” and the “apparent permeability (Papp) across hypoxic vs normoxic tissue (in words)” value is recorded as “significantly higher across hypoxic SCRPE than normoxic SCRPE”.
